Test results published in US12013390B2, “EBIV nucleic acid composition and application thereof” (Wuhan Institute of Virology, Chinese Academy of Sciences, priority 2022, dated 2024).

System: recombinant EBIV carrying green fluorescent protein
Assay: Antiviral drug screening with green fluorescent recombinant EBIV in BHK-21 cells, fluorescence per well by high content screening
Type: cell-based, Ebinur Lake virus (EBIV)
Settings: for Z-factor: high-content screening, compared with Z'-factor 0.46 of the system (25 μM ribavirin positive control)
Method: Further, the recombinant EBIV disclosed in the examples of the present application can also be used for the screening of antiviral drugs, for example for the screening of antiviral compounds. The specific steps were as follows.
(1) A 96-well plate for BHK-21 cells was prepared. The cells were planked at 10^4 cells/well. The plate was cultured in a cell incubator with a temperature of 37° C. and a CO2 concentration of 5%. The drug screening test was conducted when the cells grew to 40-50%. The drug to be tested was dissolved in dimethyl sulfoxide. Then the drug was diluted to 100 μM with DMEM medium containing 2% FBS. After that, the drug was subjected to serial 2-fold dilution to obtain the dilution gradient with the concentration of 100 μM, 50 μM, 25 μM, 12.5 μM, 6.25 μM, 3.125 μM, and 1.5625 μM, respectively (the concentration of DMSO in the diluted drug shall be <0.1%).
(2) The original culture medium was removed from the 96-well plate. The virus was inoculated into the 96-well plate at an MOI of 0.01 and a volume of 100 μL/well. At the same time, the diluted drugs to be tested were respectively added into the same 96-well plate at 100 μL/well and mixed well with the virus solution. The plate was incubated in a cell incubator with a temperature of 37° C. and a CO2 concentration of 5% for 36 hours before detection.
(3) The 96-well plate was photographed and data was analyzed using a high content screening (HCS) system to determine the amount of fluorescence per well and calculate the Z-factor for each compound:
[formula] where the four parameters σs, σc, μs, and μc represent the standard deviation and mean of the sample to be tested (s) and the negative (c) control, respectively. The stability and sensitivity of the screening system were then assessed using the Z′-factor:
[formula] where the four parameters σp, σn, μp, and μn represent the standard deviation and mean of the positive sample (p) and the negative (n) control, respectively.
(4) Cell viability per well (and the percentage of cells remaining per well) was observed under a microscope and the half-maximal effect concentration (EC50) of the drug was calculated using GraphPad Prism 9 software and an EC50 graph was plotted.

Row | Compound | Z-factor | further results
1 | CC(C)=CCC(OC(=O)C=C(C)C)C1=CC(=O)c2c(O)ccc(O)c2C1=O (stereo not drawn) [Beta, beta-dimethyl acryl shikonin] | 0.53 | 
2 | C[C@@]12C(=O)OC(=O)[C@]1(C)[C@H]1CC[C@@H]2O1 [Cantharidin] | 0.50 | 
3 | C[C@H](CCC(=O)O)[C@H]1CC[C@H]2[C@@H]3[C@H](O)C[C@@H]4C[C@H](O)CC[C@]4(C)[C@H]3CC[C@]12C [Chenodeoxycholic acid, reference compound] | 0.59 | 
4 | COc1ccc(-c2cc(=O)c3c(O)cc(O[C@@H]4O[C@H](CO[C@@H]5O[C@@H](C)[C@H](O)[C@@H](O)[C@H]5O)[C@@H](O)[C@H](O)[C@H]4O)cc3o2)cc1O [Diosmin, reference compound] | 0.58 | 
5 | Oc1cc(O)c2c(c1)O[C@H](c1cc(O)c(O)c(O)c1)[C@H](O)C2 [Epigallocatechol] | 0.51 | 
6 | CC(C)=CCc1c(O)ccc(C(=O)/C=C/c2ccc(O)cc2)c1O [Isobavachalcone] | 0.58 | 
7 | CC(C)=CCc1cc2c(cc1O)oc(=O)c1c3ccc(O)cc3oc21 [Psoralidin] | 0.46 | 
8 | C=C[C@H]1[C@H](O[C@@H]2O[C@H](CO)[C@@H](O)[C@H](O)[C@H]2O)OC=C(C(=O)OC)[C@H]1CC(=O)O [Secoxyloganin] | 0.56 | 
9 | NC(=O)c1nc(F)c[nH]c1=O [favipiravir, reference compound] |  | inhibitory effect on the virus (even at 50 μM, BHK-21 cells, MOI 0.01, 36 hours): no inhibitory effect
10 | NC(=O)c1ncn([C@@H]2O[C@H](CO)[C@@H](O)[C@H]2O)n1 [ribavirin, reference compound] |  | EC50 (Ebinur lake virus, BHK-21, 36 h, read-out: EC50 (half-maximal effect concentration)): 21.9 µM
11 | Clinodiside Aogenin A | 0.54 | 
